{Cy3} = cyanine 3 fluorescent label; {Chol} = cholesterol
How the values were obtained:
SK28 melanoma xenograft = conditions: coDbait 0.6 mg IT alone (group 4) or CQ 1 mg i.p. alone (group 3), with irradiation
From the text: Survival of five groups of nude mice bearing SK28 melanoma xenografts has been studied.

[1] = tested on: SV40 transformed fibroblasts MRC-5; experiment: Flow cytometry cellular uptake of formulated Dbait-cy3 (Table 1); assay type: cell-based, human
Procedure: (§1) The inventors monitored the cellular uptake of the different complexes using a fluorescent cy3-modified Dbait. The initial fluorescence of the cy3-Dbait complex was monitored immediately before transfection. […] Cellular content of human transfected fibroblast cells was measured by flow cytometry analysis.
The Dbait molecules were made by automated solid-phase oligonucleotide synthesis. […] […] (SEQ ID NO: 4) where H is a hexaethyleneglycol linker. Studies on cells in culture were performed using SV40 transformed fibroblasts MRC-5. Cells were grown at 37° C. in monolayer cultures in complete DMEM (Gibco, Cergy-Pontoise, France) with 10% FCS and antibiotics (100 μg/mL streptomycin and 100 μg/mL penicillin) under conditions of 100% humidity, 95% air and 5% CO2. Unless otherwise specified, transfections were performed in 1.2 mL MEM medium without serum in 60 mm diameter plates. Transfection with jetPEI (Polyplus-transfection, Illkirch, France) was performed at an N/P ratio of 6 according to the manufacturer's instructions. Briefly, Dbait was diluted in 150 mM NaCl and gently mixed with an equal volume of PEI in 150 mM NaCl and added to DMEM medium without serum. coDbait was directly added to DMEM medium without serum. Transfection of Dbait molecules was performed with SuperFect reagent in 1.2 mL DMEM medium with serum (in 60 mm diameter plates) for 5 hours and then cells were left to recover for 1 hour if not indicated otherwise. For electroporation, 1.2×10^6 cells were transfected with 2 μg Dbait using the Gene Pulser II (Bio-Rad, Marnes-la-Coquette, France). At the end of the 5h transfection (time zero), medium was replaced by complete medium and cells were grown for the indicated time before being analyzed.
Cells were transfected with different complexes with Dbait-cy3 for 5 h and allowed to grow 5 hours or 24 hours, then rapidly washed with PBS. Cells were directly analyzed by flow cytometry. For immunofluorescence detection by flow cytometry, the cells were fixed in 2% paraformaldehyde for 10 min prior to immunodetection. […] Cells were washed with PBS and resuspended in PBS with 50 μg/mL propidium iodide, 25U/ml RNaseA. Cells were analyzed by a FACSCalibur flow cytometer (BD Biosciences, Franklin Lakes, N.J., USA) and data was analyzed using BD CellQuest Pro (BD Biosciences) and the free WinMDI 2.8 (Scripps Research Institute, La Jolla, Calif., USA) software.

[2] = tested on: SK28 xenografted human melanoma; experiment: SK28 xenograft survival and tumor growth delay after irradiation with formulated Dbait (Table 2); conditions: IT; for Mean TGD: tumor growth delay
Procedure: The antitumoral effect of formulated Dbait was tested in combination with radiotherapy on SK28 xenografted human melanoma. Dbait/vector complexes were administered 5 hours before each irradiation using intratumoral injections.
SK28 or U87G xenograft tumors were obtained by injecting 10^6 tumor cells into the flanks of adult female nude mice (Charles River strain; L'Arbresle, France). […] After approximately 12 days, when the subcutaneous tumors measured 150-200 mm^3, the mice were separated into homogeneous groups of at most 12 each to receive different treatments. […] Doses were controlled by thermoluminescence dosimetry. A total dose of 30 Gy was delivered in 6 sessions at intervals of three sessions of 5 Gy per week during two weeks. Dbait molecules were prepared in 100 μL of 10% sucrose as previously described for in vitro studies except that PEI mixtures were performed without NaCl (Polyplus-transfection, Strasbourg, France). The Dbait mixtures were incubated for 15 min at room temperature before injection. CoDbait was diluted in 10% sucrose at the required concentration. Intratumoral injections of the indicated amount of Dbait were performed 5 h before each radiotherapy session. Mock treated animals were injected with 100 μL of 10% glucose according to the protocol of the associated assays. Tumor size was assessed by caliper measurements every three days and size was calculated by the formula (2× length×width^2). Mice were weighed and pictures of tumors were taken every week. For ethical reasons, the animals were sacrificed when their tumors reached 2,000 mm^3. The end point used in survival analysis was death day.
Descriptive analyses of the tumor response were performed for each treatment and each tumor type. Day 1 was the day of the first treatment session. All animals were followed for at least 150 days. Median lifetime was estimated according to the Kaplan-Meier method. Tumor growth delay (TGD) was calculated by subtracting the mean tumor volume quadrupling time of the control group from tumor volume quadrupling times of individual mice in each treated group. The mean TGD was calculated for each treated group using the individual measurements. […] A global LogRank was first performed for each group with the same tumor type. Then treatments with Dbait were compared to the mock-treated controls. All tests were considered significant at the 0.05 significance level.

[3] = Fluorescence of formulated cy3-Dbait before transfection; conditions: fluorescence at FL2 value of the cy3-Dbait formulation
Procedure: as §1
Cells were directly analyzed by flow cytometry. For immunofluorescence detection by flow cytometry, the cells were fixed in 2% paraformaldehyde for 10 min prior to immunodetection. […] Cells were washed with PBS and resuspended in PBS with 50 μg/mL propidium iodide, 25U/ml RNaseA. Cells were analyzed by a FACSCalibur flow cytometer (BD Biosciences, Franklin Lakes, N.J., USA) and data was analyzed using BD CellQuest Pro (BD Biosciences) and the free WinMDI 2.8 (Scripps Research Institute, La Jolla, Calif., USA) software.

zebrafish embryos = experiment: Injection into 1K-stage zebrafish embryos: distribution and 24 h phenotype toxicity; conditions: same concentration of Dbait, by adjuvant
Procedure: More than 100 embryos were analyzed for each condition.
The observation of phenotypic effects 20 hours after injection allowed assessment of Dbait activity and treatment overall toxicity. […] The 24-hour phenotypes were categorized as described (FIG. 3), allowing quantification of the injected mixture's toxicity.
Zebrafish eggs were obtained from natural spawning of wild type or transgenic (flactin:egfp-ras) fish lines. […] Glass capillaries (Harvard Apparatus GC100-10) were pulled with a KopF vertical pipette puller (KopF 720) to make injection needles. 2 to 5 nl of Dbait solution were injected at the animal pole of embryos in cell cycle 10 and immediately processed for confocal laser scanning microscopy imaging (upright Leica SP2) with 40×/0.8 NA water dipping lens objective. Imaging was performed by simultaneous 480 nm (eGFP) and 561 nm (cy3) excitation. […] One-day-old larvae were observed under the dissecting stop and phenotypes categorized as described in FIG. 3. […] Dbait (coDbait)-cy3 50 μM was injected either alone or in combination with PEI25K (ratio N/P=9), PEI11K (ratio N/P-6), or SuperFect (10 μl/1 μg Dbait).

MRC5 cell line = experiment: Flow cytometry analysis of cellular uptake in the MRC5 cell line (Cy3); assay type: cell-based, human
Procedure: Cellular uptake of the Dbait conjugated to cholesterol, in particular CoDbait, in comparison with the Dbait was measured by the inventors by flow cytometry analysis.
Flow cytometry analysis of cellular uptake in the MRC5 cell line performed at 5 hours after the beginning of treatment of various transfection conditions was as described in the table.

[4] = corrected cellular content FL2/fluorescence, Dbait 1.6 μg/mL

Compound: CCN(CC)CCCC(C)Nc1ccnc2cc(Cl)ccc12 (stereo not shown) [chloroquine, 7-chloro-4-(4-diethylamino-1-methylbutyl-amino)quinoline]
- radiosensitization (SK28 melanoma xenograft): neither coDbait (group 4) nor CQ (group 3) showed significant radiosensitization
- MCC 5 hrs ([1]; mean cellular content FL2 value, no Dbait, chloroquine only): 3.12
- Mean % TGD ([2]; CQ without Dbait): 142%
- Median survival time ([2]; CQ without Dbait): 68
- Mean TGD ([2]; CQ without Dbait): 8

Compound: Dbait: 32-bp hairpin DNA, SEQ ID NO: 4, hexaethyleneglycol linker; mimics double strand breaks (DNA GCTGTGCCCACAACCCAGCAAACAAGCCTAGA; DNA, backbone not given here; hairpin DNA with hexaethyleneglycol linker)
- cor MCC 5 hrs [1, 4]: 0.43
- cor MCC 24 hrs [1, 4]: 0.56
- fluorescence distribution of treated cells ([1]; flow cytometry): not different from untreated controls
- MCC 24 hrs ([1]; mean cellular content FL2 value, Dbait 1.6 μg/mL): 3.45
- MCC 5 hrs ([1]; mean cellular content FL2 value, Dbait 1.6 μg/mL, chloroquine +/− as in row): 2.65
- Mean % TGD ([2]; 6 × 60 μg (3 nmol)): 114%
- Median survival time ([2]; 6 × 60 μg (3 nmol)): 63
- Cured mice ([2]; 6 × 60 μg (3 nmol), no recurrence within 300 days): 0
- Relative risk ([2]; 6 × 60 μg (3 nmol), versus mock): 1.40
- Mean TGD ([2]; 6 × 60 μg (3 nmol)): 3
- fluorescence × 10e−6/μg/mL [3]: 6 10e−6/μg/mL
- 24-hour phenotype / toxicity in zebrafish embryos (zebrafish embryos): no effect on development

Compound: Co_siRNA_H2AX-Cy3: siRNA targeting H2AX with a cyanine 3 and a cholesterol at the 5′ and 3′ of the sense strand (sense CAACAAGAAGACGCGAAUCTT; antisense GAUUCGCGUCUUCUUGUUGTT; sense: 5' {Cy3}, 3' {Chol}, sugars by position and backbone not given here; antisense: chemistry not given here)
- Cy3 fluorescence intensity @5 hrs. Mean (MRC5 cell line; 79 nM): 56
- Cy3 fluorescence intensity @5 hrs. Median (MRC5 cell line; 79 nM): 53
- Cy3 fluorescence intensity @5 hrs. Mean (MRC5 cell line; 79 nM + CQ 50 μM): 63
- Cy3 fluorescence intensity @5 hrs. Median (MRC5 cell line; 79 nM + CQ 50 μM): 60
- Cy3 fluorescence intensity @5 hrs. Mean (MRC5 cell line; 986 nM): 710
- Cy3 fluorescence intensity @5 hrs. Median (MRC5 cell line; 986 nM): 661
- Cy3 fluorescence intensity @5 hrs. Mean (MRC5 cell line; 986 nM + CQ 50 μM): 1214
- Cy3 fluorescence intensity @5 hrs. Median (MRC5 cell line; 986 nM + CQ 50 μM): 1144

From patent US10765758B2, “Optimized in vivo delivery system with endosomolytic agents for nucleic acid conjugates” (ONXEO, priority 2010, dated 2020)
